# In patent US9668960B2, “Methods useful in studying or modulating skin or hair pigmentation, plant extracts for use in compositions and cosmetic care method” (L V M H RECHERCHE, priority 2008, dated 2017):
# Assays:
# Format in all cases: cell-based
# [1] = tested on: tyrosinase; assay: DOPA oxidase detection for tyrosinase activity in pigmented normal human melanocytes; conditions: 72 h; for Changes in tyrosinase activity, F52 EMc % change / % Change in EM Tyrosinase Activity vs. Basal EM level (i.e. 0), EM: L-18 0.001%, L-23 0.05 μg/ml, IBMX 100 μM, niacinamide 10 μM; for Changes in tyrosinase activity, F52 EMc % change: L-19 1%, L-20 0.5%, L-21 10 μg/ml, L-22 1%, NH4Cl 100 μM, vs basal; for % Change in EM Tyrosinase Activity vs. Basal EM level (i.e. 0), EM: EM monoculture (F52)
# Method: The cells were prepared for SDS-PAGE and transblotted onto PVDF membranes. 70 μg of un-reduced protein extract without boiling was pipetted into the appropriate wells of 8% SDS-PAGE gels. […] The L-DOPA reaction was stopped by washing the membrane in distilled water and the membrane was scanned. […] In addition IBMX and NH4Cl (positive melanocytic modulators) and niacinamide (negative modulator) were used as controls. […] Normal human epidermal melanocytes (Female-52; p5) were treated for 72 h with L-18 (0.001%), L-19 (1%), L-20 (0.5%), L-21 (10 μg/ml), LVMH-22 (1%) and L-23 (0.05 μg/ml). Controls: Melanocytic modulators: IBMX (100 μM), NH4Cl (100 μM), and niacinamide (10 μM). (A) Protein extracts were electroblotted and membranes stained with L-DOPA for the estimation of tyrosinase activity.
# [2] = tested on: tyrosinase; assay: Tyrosinase activity in normal human melanocyte and keratinocyte co-culture (EM:KC); conditions: 72 h; for % Change in EM Tyrosinase Activity of stimulated EM vs. stimulated EM-EK) level (i.e. 12.16): co-culture versus monoculture under the same stimulus; for % Change in EM Tyrosinase Activity vs. Basal EM level (i.e. 0), EM-EK: matched EM-EK co-culture (F52), L-18 0.001%, L-23 0.05 μg/ml, IBMX 100 μM, niacinamide 10 μM, basal co-culture +12.16
# Method: The cells were prepared for SDS-PAGE and transblotted onto PVDF membranes. 70 μg of un-reduced protein extract without boiling was pipetted into the appropriate wells of 8% SDS-PAGE gels. […] The L-DOPA reaction was stopped by washing the membrane in distilled water and the membrane was scanned. […] Normal human epidermal melanocyte culture (Female-52; p5) and matched co-culture […] MC-KC were treated for 72 h with L-18 (0.001%), L-23 (0.05 μg/ml). Controls: Melanocytic modulators: IBMX (100 μM), and niacinamide (10 μM). Negative control lane: Keratinocytes only (A) Protein extracts were electroblotted and membranes stained with L-DOPA for the estimation of tyrosinase activity. (B) Densitometric scanning of band intensities and values were expressed as the fold increase compared to unstimulated control levels. Means are ±SEM of 3 independent experiments with *P<0.05, **P<0.01, ***P<0.001.
# [3] = tested on: Myo-X; assay: Myo-X protein expression by Western blotting in normal human melanocytes; conditions: EM (F39), 12 h
# Method: Western blot analysis: EMc in a confluent T225 flask were trypsinised and seeded into T25 flask with full medium and allowed to attach overnight. 24 h before treatment the medium was replaced with starved medium for 24 h. Cells were washed 3-times with sterile PBS, and incubated in starved medium alone, or L-18 (0.001%), L-19 (1%), L-20 (0.5%), L-21 (10 μg/ml), L-22 (1%) and L-23 (0.05 μg/ml) for 12 and 72 h. Controls included IBMX (100 μM) and niacinamide (10 μM).
# 40 μg of total protein from each cell extract was electrophoresed in reducing SDS-8%-PAGE and blotted on PVDF membranes (Millipore Corporation, Bedford, Mass.). […]
# After extensive washes the blots were incubated with horseradish peroxidise conjugated secondary antibodies for 2 h. […] The chemiluminescent signal was detected by exposing the blot strips to Kodak XRA X-ray film (Kodak, UK) at various exposure times, followed by development in developing solution (Kodak, UK) until bands appeared, rinsed in tap water, fixed in the fixer (Kodak, UK) until the film turned blue, then rinsed with tap water and allowed to dry. […]
# (A) Cell extracts were analyzed by Western blotting using anti-Myo-X and anti-β-actin as a loading control.
# (B) Densitometric analysis of Myo-X and actin band intensities expressed as percentage change compared to unstimulated controls. […]
Structure (SMILES),"Changes in tyrosinase activity, F52 EMc % change [1]","% Change in EM Tyrosinase Activity vs. Basal EM level (i.e. 0), EM [1]","effect on tyrosinase (dopa oxidase) activity compared with basal levels ([1]; normal melanocytes (EM), doses as E5)",% Change in EM Tyrosinase Activity of stimulated EM vs. stimulated EM-EK) level (i.e. 12.16) [2],"% Change in EM Tyrosinase Activity vs. Basal EM level (i.e. 0), EM-EK [2]","increase in Myo-10 expression, fold versus untreated controls ([3]; IBMX 100 μM) [fold]",Myo-X expression reduced by ([3]; niacinamide 10 μM) [%]
CC(C)Cn1c(=O)n(C)c(=O)c2[nH]cnc21 [IBMX],+72.47%,+56.51%,dramatic increase in dopa oxidase activity of tyrosinase,+23.57%,+93.41%,3,
NC(=O)c1cccnc1 [niacinamide],−4.58%,−2.12%,,−18.84%,−20.50%,,60
